Key:
Type in all cases: in vivo, SD rats
[1] = test system: rat pulmonary fibrosis model; assay: Lung function in bleomycin pulmonary fibrosis rats, Example 2
Experimental: In order to evaluate the difference in the efficacy of isoliquiritigenin and paeoniflorin alone and in combination, a study was conducted by splitting the Formula 8 into isoliquiritigenin, paeoniflorin and combination thereof, each adopting the dose of 0.55 mg/kg/d.
The experimental materials and research methods were the same as those in Example 1.
A total of 72 rats were randomly divided into blank group, model group, isoliquiritigenin group, paeoniflorin group, combination group, and pirfenidone group, 6 groups in total, 12 rats in each group, and 6 female/group, 6 male/group. The modeling day was set as day 0. From the 29th day, the blank group (normal rats without modeling) and the model group were administered intragastrically with physiological saline (2 ml/rat), the isoliquiritigenin group was administered with isoliquiritigenin (0.55 mg/kg/d), the paeoniflorin group was administered with paeoniflorin (0.55 mg/kg/d), and the combination group was administered with isoliquiritigenin+paeoniflorin (0.55 mg/kg/d), once daily, for 14 days, and the samples were collected at the end of the 42nd day.
Before collecting the sample, the rats were anesthetized and submitted to a tracheotomy, and the tracheal tube was inserted into the rat's trachea and fixed. The FinePointe™ series PFT measurement system was used to detect the rat's forced vital capacity (FVC), forced expiratory volume in 0.3 s (FEV 0.3), vital capacity (VC), and dynamic lung compliance (Cydn).

α-SMA = α-SMA expression in lung tissue by immunohistochemistry, Example 1
Experimental: (§1) A rat pulmonary fibrosis model was prepared using a one-time intratracheal instillation of bleomycin. After the rat was anesthetized by intraperitoneal injection of 10% chloral hydrate (3.0 ml/kg), it was tilted back and fixed on a rat board and irradiated with light source on the throat, and the glottis was seen to open and close in an orderly manner with breathing when the tongue was gently lifted to open the mouth. The indwelling needle was gently pushed into the trachea as the glottis opened and closed, the needle core was pulled out, and whether tracheal intubation was successful was verified by swing of a cotton thread. Bleomycin was injected into the trachea at a dose of 5 mg/kg, and 0.5 ml of air was further injected to ensure the depth of the drug. The rat was held upright and rocked from side to side to ensure even distribution of the drug in the lung. The anesthetized rat was placed on an electric blanket to maintain body temperature. After waking up, it is placed into a corresponding cage. The rats were fed normally until the 28th day, drinking pure water and eating sterile feed freely every day.
(§2) The modeling day was set as day 0.
(§3) The detection was performed by Immunohistochemistry.
(§4) The lung tissue was sliced into 4 μm sections and baked at 60° C. for 3 hours. The paraffin sections were dewaxed in xylene, dehydrated in gradient alcohols, and washed in distilled water for 2 minutes in order. The washed sections were then boiled in 0.01 M citrate buffer in a microwave oven for antigen retrieval. A 3% […] was added dropwise to the sections to block endogenous peroxidase. After the sections were blocked with a 5% BSA blocking solution and incubated at 37° C. for 30 minutes, the primary antibody was added dropwise thereto (the dilution ratio was 1:500 for CoL I, and 1:2000 for α-SMA), and the sections were incubated overnight in a humid box at 4° C. HRP-labeled goat anti-rabbit secondary antibody was added dropwise, and the sections were incubated at 37° C. for 20 minutes; and then SABC was added dropwise and the sections were incubated at 37° C. for 30 minutes. Thereafter, a freshly prepared DAB chromogenic solution was added dropwise, and the sections were observed under a microscope, and the color development was stopped once brownish yellow appeared. The sections were counterstained with hematoxylin for 30 seconds, differentiated with a 1% hydrochloric acid in alcohol for 3 seconds; and dehydrated in gradient alcohols in sequence. The sections were dried in a fume hood, sealed with neutral gum, and dried in the air. Images were collected with Olympus-DP70 microscope (Image-Pro Plus 6.0, IPP 6.0), 6 fields were randomly selected for each section, and the image integrated optical density (IOD) was calculated.

[2] = test system: rat pulmonary fibrosis model; assay: Lung tissue pathology, H&E and Masson staining, Szapiel scoring, Example 1
Experimental: as §1, §2
The left lung was fixed with 10% formaldehyde for 72 hours, embedded in paraffin, sectioned at 4 μm for HE and Masson staining.
Pathological scoring of alveolitis and pulmonary fibrosis was performed according to the Szapiel method, the degree of alveolitis was determined by HE staining, and the degree of pulmonary fibrosis was determined by Masson staining.
The pathological changes in lung tissue were observed using an optical microscope. 6 sections were selected from each group and 6 fields were selected from each section.

[3] = test system: rat pulmonary fibrosis model; assay: Lung function (FinePointe PFT) in bleomycin pulmonary fibrosis rats, Example 1
Experimental: as §1, §2
Before collecting the sample, the rat was anesthetized and submitted to a tracheotomy, and the tracheal tube was inserted into the rat's trachea and fixed. The FinePointe™ series PFT measurement system was used to detect the rat's forced vital capacity (FVC), forced expiratory volume in 0.3 s (FEV 0.3), vital capacity (VC), and dynamic lung compliance (Cydn).

[4] = test system: rat pulmonary fibrosis model; assay: R value comprehensive evaluation of 8 indicators, Example 1
Experimental: The data were standardized and the Rcomprehensive value data set was established (Rcomprehensive=R−(−2)). […] When Rcomprehensive<1, it means that the comprehensive corrective degree of the drug on such indicators exceeds the normal value.
A total of 8 indicators, i.e., lung function (FVC, FEV0.3, IC, Cydn), lung tissue pathology (H&E staining, Masson staining), and collagen deposition (CoL I, α-SMA) were calculated using the R value comprehensive evaluation method.

[5] = test system: rat pulmonary fibrosis model; assay: Lung tissue pathology, H&E and Masson staining, Szapiel scoring, Example 2
Experimental: The experimental materials and research methods were the same as those in Example 1. […] The modeling day was set as day 0. […] The left lung was fixed with 10% formaldehyde for 72 hours, embedded in paraffin, sectioned at 4 μm for HE and Masson staining. Pathological scoring of alveolitis and pulmonary fibrosis was performed according to the Szapiel method, the degree of alveolitis was determined by HE staining, and the degree of pulmonary fibrosis was determined by Masson staining. The pathological changes in the lung tissue were observed using an optical microscope. 6 sections were selected from each group and 6 fields were selected from each section.

CoL I = CoL I expression in lung tissue by immunohistochemistry, Example 1
Experimental: as §1, §2, §3, §4

[6] = test system: rat pulmonary fibrosis model; assay: Lung function in bleomycin pulmonary fibrosis rats, Example 2; details: isoliquiritigenin, paeoniflorin, combination each 0.55 mg/kg/d intragastric, day 29-42, X ± SE, N = 10
[7] = isoliquiritigenin, paeoniflorin, combination each 0.55 mg/kg/d intragastric, day 29-42, X ± SE, N = 10
[8] = lung tissue IHC, doses per Table 4, 14 days, X ± SE, N = 6
[9] = bleomycin 5 mg/kg intratracheal, intragastric once daily day 29-42, doses per Table 4, X ± SE, N = 10

## paeoniflorin [Formula 7]
[1]; P<0.01, P<0.05
  FEV0.3, compared with the model group: increased
  FVC, compared with the model group: increased
[1]; [7]
  Cydn: 0.31 ± 0.54 mL/s
  FEV0.3: 12.88 ± 0.98 mL/s
  FVC: 13.49 ± 1.17 mL/s
α-SMA; P<0.05
  expression of α-SMA protein, compared with the model group: significantly reduced
α-SMA; [8]
  α-SMA (IOD): 10.57 ± 0.36 IOD
[2]; H&E staining, score 0-3, doses per Table 4, 14 days, X ± SE, N = 6
  Alveolitis (score): 1.44 ± 0.27 score
[2]; Masson staining, score 0-3, doses per Table 4, 14 days, X ± SE, N = 6
  Pulmonary fibrosis (score): 0.94 ± 0.16 score
[2]; P<0.01, P<0.05
  pulmonary fibrosis scores, compared with the model group: significantly reduced
[3]; P<0.01, P<0.05
  FEV0.3, compared with the model group: significantly increased
  FVC, compared with the model group: significantly increased
  IC, compared with the model group: significantly increased
[3]; P<0.05
  FEV0.3, compared with the pirfenidone group: increased
  FVC, compared with the pirfenidone group: increased
[3]; [9]
  Cydn: 0.31 ± 0.03 mL/s
  FEV0.3: 14.70 ± 1.25^##Δ ml/s
  FVC: 15.95 ± 1.36^##Δ ml/s
  IC: 9.84 ± 0.75 mL/s
[4]
  R value comprehensive evaluation, comparison between treatment groups: better than the Formula 3 (icariin), the Formula 4 (isoliquiritigenin), and the Formula 5 (nobiletin)
[4]; 8 indicators, R=1 best effect, R=2 no corrective effect, X ± SE, N = 8
  Total efficacy related indicator R value: 1.41 ± 0.27^##□▪
[5]; H&E staining, each 0.55 mg/kg/d, 14 days, X ± SE, N = 6
  Alveolitis (score): 1.52 ± 0.29 score
[5]; Masson staining, each 0.55 mg/kg/d, 14 days, X ± SE, N = 6
  Pulmonary fibrosis (score): 1.65 ± 0.19 score
[5]; P<0.01, P<0.05
  pulmonary fibrosis score, compared with the model group: could reduce
CoL I; P<0.01, P<0.05
  expression of CoL I protein, compared with the model group: significantly reduced
CoL I; [8]
  COL I (IOD): 13.61 ± 1.90 IOD
[6]
  IC: 9.62 ± 0.54 mL/s
